# Results: paper PMC8548882, “The Trp-rich Antimicrobial Amphiphiles With Intramolecular Aromatic Interactions for the Treatment of Bacterial Infection” (Frontiers in Microbiology, 2021)
# Ends that are not written are not given here.
# What was measured:
# S.aureus 25923 = assay type: cell-based, Staphylococcus aureus ATCC 25923; conditions: 25923
# Description: (§1) The tested strains were kindly provided by the laboratory of Veterinary Microbiology and Immunology, the College of Veterinary Medicine, Northeast Agricultural University (gram-negative bacteria, Salmonella enterica serovar typhimurium C77-31, Salmonella typhimurium ATCC 14028, Escherichia coli ATCC 25922, Pseudomonas aeruginosa ATCC 27853 and gram-positive bacteria, Staphylococcus aureus ATCC 29213, Staphylococcus aureus ATCC 43300, Staphylococcus epidermidis ATCC 12228, Staphylococcus aureus ATCC 25923).
# (§2) The famous microtiter dilution, National Committee for Clinical Laboratory Standards, was adopted to measure the antimicrobial ability of the engineering peptides ([Chou et al., 2016]). In brief, the 50μl with serial dilution was incubated with the same volume bacteria (1×10^5CFU/ml in midi-logarithmic phase) in a 96-well plate 18–24h at 37°C. The positive control was the bacteria treated with culture medium and the negative control was merely culture medium. The MICs (minimum inhibitory concentrations) were defined as the lowest concentration of peptides that prevented the production of visible turbidity ([Tossi et al., 2000]).
# [1] = test system: human red blood cells (hRBCs); assay: Hemolytic activity; assay type: cell-based
# Description: The hemolytic activity of peptides was reflected by the releasing amount of hemoglobin from erythrocytes lysis induced by peptides ([Dong et al., 2014a]). The informed consent was obtained from the volunteers (3 healthy 25-year-old male volunteers) before the experiment. In brief, the human red blood cells (hRBCs), donated by volunteer, were collected, washed, and resuspended in PBS at pH 7.2. The peptides were serially diluted in PBS at different concentrations in a 96-well cell cultures plate and incubated with 50μl hRBCs for 1h at 37°C. The 0.1% Trition X-100 was selected as the treatment of positive control and the negative control was the hRBCs treated with PBS. After 1h incubation, the supernatant, obtained by centrifuging the plate 1,000g for 5min, was transferred to a brand-new plate for absorbance detection at 570nm. The releasing amount of hemoglobin was converted to the percent hemolysis against to 0.1% Triton X-100 treatment. The lowest concentration caused 5% hemolysis of hRBCs and was defined as the lowest hemolytic concentration of antimicrobial peptide.
# HEK 293T cells = assay type: cell-based, human; conditions: ratio of IC50 to GM
# Protocol: (§3) The MTT (3-[4,5 dimethylthiozol-2-yl]-2,5-diphenylterazoliumbromide) dye was selected to analyze the cytotoxicity of peptides against the murine macrophage cell RAW 264.7 (National Collection of Authenticated Cell Cultures, Shanghai, China), human embryonic kidneys (HK293T), and the porcine intestinal epithelial cells (IPEC-J2) as in our previously study ([Li et al., 2020]). In short, the cells (10^4 cells/well) were seeded into 96-well plates and were cultivated overnight. Then the peptides with different final concentration (2μM, 4μM, 8μM, 16μM, 32μM, 64μM, and 128μM) were introduced into the plate and challenged with cells for 24h. After overnight incubation, the 50μl MTT (0.5mg/ml) was added into the cell cultures for 4h. Then the plate was centrifuged to discard the supernatants and obtain the formazan crystals. The DMSO (dimethyl sulfoxide) was employed as a solvent to dissolve the formazan crystals on the bottom of the plate and the optical density was read at 492nm with a microplate reader.
# IPEC-J2 cells = assay type: cell-based, porcine; conditions: IPEC-J2; ratio of IC50 to GM
# Protocol: as §3
# RAW 264.7 cells = assay type: cell-based, murine; conditions: RAW264.7; ratio of IC50 to GM
# Protocol: as §3
# E. coli 25922 = assay type: cell-based, Escherichia coli ATCC 25922
# Description: as §1
# S.aureus 29213 = assay type: cell-based, Staphylococcus aureus ATCC 29213; conditions: 29213
# Description: as §1, §2
# [2] = test system: panel of gram-negative and gram-positive bacteria; conditions: over the eight strains of Table 2
# Protocol: as §2
# MRSA 43300 = assay type: cell-based, Staphylococcus aureus ATCC 43300; conditions: microtiter dilution, 1×10^5CFU/ml, 18–24h at 37°C, visible turbidity
# Description: as §1, §2
# [3] = test system: hRBC, IPEC-J2, HEK 293T, RAW264.7
# Protocol: Besides, the therapeutic index of peptide in the mammalian eukaryotic cell (RAW 264.7, HEK 293T, and IPEC J2) was also calculated to study the biocompatibility of peptides.
# P. aeruginosa 27853 = assay type: cell-based, Pseudomonas aeruginosa ATCC 27853; conditions: 27853
# Protocol: The famous microtiter dilution, National Committee for Clinical Laboratory Standards, was adopted to measure the antimicrobial ability of the engineering peptides ([Chou et al., 2016]). In brief, the 50μl with serial dilution was incubated with the same volume bacteria (1×10^5CFU/ml in midi-logarithmic phase) in a 96-well plate 18–24h at 37°C. The positive control was the bacteria treated with culture medium and the negative control was merely culture medium. […] The antimicrobial performance of peptides against P. aeruginosa 27853 cells was further studied under the complicated physiological conditions ([Lyu et al., 2016]). […] The serum was also taken into the consideration for the adverse impact on the antimicrobial effect of peptides.
# S.typhimurium 7731 = assay type: cell-based, Salmonella enterica serovar typhimurium C77-31
# Description: as §1
# P.aeruginosa 27853 = assay type: cell-based, Pseudomonas aeruginosa ATCC 27853; conditions: 27853
# Description: as §1, §2
# S.epidermidis 12228 = assay type: cell-based, Staphylococcus epidermidis ATCC 12228
# Description: as §1
# S.typhimurium 14028 = assay type: cell-based, Salmonella typhimurium ATCC 14028
# Description: as §1
# normal skin tissue = assay: Skin toxicity, TUNEL assay; conditions: subcutaneous injection, 24h; VW5 5mg/kg; DMSO 100μl 100%
# Protocol: The potential toxicity of peptides to normal skin tissues was further tested by TUNEL assay ([Huang et al., 2009]). […] The 100μl 100% DMSO treatment served as a positive control, which was well-known for its toxicity to induce skin necrosis. Then, the skin samples were harvested and were subjected to TUNEL assay and counterstain with 4,6-diamidino-2-phenylindole (DAPI).
Compound,MIC (S.aureus 25923) [µM],"HC5 (MHC), lowest concentration that caused 5% hemolysis ([1]; hRBC in PBS pH 7.2, 1h at 37°C, absorbance 570nm, vs 0.1% Triton X-100, highest test concentration 128μM) [µM]","Therapeutic index (TI) ([1]; hRBC, ratio of MHC to GM)",Therapeutic index (TI) (HEK 293T cells),Therapeutic index (TI) (IPEC-J2 cells),Therapeutic index (TI) (RAW 264.7 cells),MIC (E. coli 25922) [µM],MIC (S.aureus 29213) [µM],"GMMIC, geometric mean of the MICs [2] [µM]",MIC (MRSA 43300) [µM],"GMTI, geometric mean of TI of various cell lines [3]",MIC (P. aeruginosa 27853) [µM],MIC (S.typhimurium 7731) [µM],MIC (P.aeruginosa 27853) [µM],MIC (S.epidermidis 12228) [µM],MIC (S.typhimurium 14028) [µM],apoptotic cells in epidermal layer (TUNEL) (normal skin tissue)
VKKLVKKAVKKLVKKA-NH2 [VL1],>64,>128,>1.00,75.40,58.65,68.71,>64,>64,128.00,>64,>23.48,>64,>64,>64,>64,>64,
"C[S+](C)[O-] [DMSO, dimethyl sulfoxide]",,,,,,,,,,,,,,,,,heavy cell apoptosis
